According to patent US20090326008A1, “NF-kappa B Inhibitor” (priority 2006, published 2009):

System: COX-2 gene expression
Assay: Effects of test compounds on COX-2 gene expression in gastric cancer cell line MKN-45 (real-time PCR)
Type: cell-based, human
Conditions: MKN-45 cells, test compound 1 μM, 16 hours, vs DMSO control = 100%, mean of triplicate
Procedure: The human gastric cancer cell line MKN-45 obtained from JCRB (Japanese Collection of Research Bioresources) was cultured in Iscove's Modified Dulbecco's Medium (product of GIBCO) containing 10% fetal calf serum for 24 hours using a 6-well plate and a 5% CO2 incubator (37° C., 5% CO2). Test compound solutions prepared by diluting each test compound with DMSO (solvent) to a final concentration of 1 μM, and the same amount of DMSO as a control solution (containing no test compound) were added to the wells of the 6-well plate, and the cells were cultured in a CO2 incubator (37° C., 5% CO2) for 16 hours.
The cells were recovered, and Total RNA was prepared from the cells using Trizole reagent (product of Invitrogen) according to the standard method. Real-time PCR was performed using TaqManO Gene Expression Assays for human COX-2 (product of Applied Biosystems), and the amount of COX-2 mRNA in each test-compound-treated cell were determined. […]
PCR was performed according to the manufacturer's instructions for TaqMan® Gene Expression Assays (product of Applied Biosystems). […] The amount of each mRNA was determined from the calibration curve using the ABI PRISM 7000 Sequence Detection System. […]

## COc1ccc(CC2SC(=S)NC2=O)c2c1N(CCC(C)C)C(=O)CC2 (stereo not shown) [Test Compound 965]
  COX-2 gene expression inhibition (%): >20%
